Data on three compounds can be found in EP3406693B1, “FREEZER OIL FOR R32 REFRIGERANT AND COMPOSITION COMPRISING SAME” (NOF Corporation, priority 2016, dated 2017).

Format in all cases: physicochemical
One data set in a line: Acid number (JIS C2101). The procedure: According to JIS C2101, the acid number of ester A1 and the like was measured.
The nature of the next data set: Pour point (JIS K2269). The protocol:
According to JIS K2269, the pour point of ester A1 and the like was measured.

A short description of data set [1]: Two-layer separation temperature of ester A1 to A8 and R32 refrigerant. Conditions: ester 2 g + R32 refrigerant 6 g, range -60°C to +40°C. The procedure: Using the aforementioned ester A1 to ester A8 as a refrigerating machine oil, a two-layer separation temperature of ester A1 to ester A8 and R32 refrigerant was measured as follows. To be specific, any of ester A1 to ester A8 (2 g) and R32 refrigerant (6 g) were sealed in a pressure-resistant glass tube and cooled from 40°C at a rate of 1°C/min by using an ethanol bath containing dry ice. The temperature at which ester and R32 refrigerant was separated in two layers was measured within the range of -60°C to +40°C by visual observation. One with a two-layer separation temperature of +40°C or above was evaluated as ×, +40°C to -10°C as ○, and - 10°C or below as ⊙.

Data set [2] is described as follows: Cloud point of additive in 1,1,1,3,3-pentafluorobutane/ethyl acetate (JIS 2269). Conditions: 10 mass % in 1,1,1,3,3-pentafluorobutane/ethyl acetate 75/25 (mass ratio). The protocol: As the aforementioned additive, any can be used as long as it has a cloud point of not less than -30°C when measured under the aforementioned conditions. Only one kind of the aforementioned additive may be used or two or more kinds thereof may be used in combination. […] The cloud point of the aforementioned additive as measured under the above-mentioned conditions is preferably not less than -20°C, more preferably not less than -15°C. The cloud point can be measured according to JIS 2269 "Testing Methods for Pour Point and Cloud Point of Crude Oil and Petroleum Products".
The cloud point when the additive (triphenyl phosphate and glycerol monooleate) used in the production of the below-mentioned refrigerating machine oil composition was dissolved at a concentration of 10 mass % in a mixed solvent of 1,1,1,3,3-pentafluorobutane and ethyl acetate at a mass ratio (1,1,1,3,3-pentafluorobutane/ethyl acetate) of 75/25 was measured according to JIS 2269. The cloud point of triphenyl phosphate measured under these conditions was -3°C and the cloud point of glycerol monooleate was 25°C.

Turning to `CCCCOC(=O)CC(O)(CC(=O)OCCCC)C(=O)OCCCC` [ester A6], in “Acid number (JIS C2101)”, the acid number is 0.1 or below mgKOH/g. The pour point in the data set “Pour point (JIS K2269)” was -50 °C. In addition, the two-layer separation temperature in data set [1] (cooled from 40°C at 1°C/min, visual) was at most -60 °C. The “two-layer separation temperature (evaluation)” value in data set [1] is “⊙ (- 10 °C or below as ⊙)”.

Regarding `CCCCCCCC/C=C\CCCCCCCC(=O)OCC(O)CO` (stereo not drawn) [glycerol monooleate], the cloud point in data set [2] was determined as 25 °C.

Turning to `O=P(Oc1ccccc1)(Oc1ccccc1)Oc1ccccc1` [triphenyl phosphate], the cloud point in data set [2] is -3 °C.
